# Reference: patent publication US9358226B2, “Triarylmethane analogs and their use in treating cancers” (Emory University, priority 2007, dated 2016)
# Like-named read-outs stand apart in the source and are kept apart here.
# Assays:
# Leishmania amazonensis = assay: Leishmaniasis model, in vitro promastigotes, parasites/mL; type: cell-based; details: for activity in first experiment: 1 and 0.1 mcM (ethanol 0.1 and 0.01%)
# Method: The experiments were started using water as a solvent for the triarylmethanes (TPM, standing for triphenylmethane). However, water was not an effective solvent, so ethanol was substituted. Ethanol is toxic to leishmania, so a control group was tested with a higher ethanol concentration than that present on the TPM groups.
# Each of FIGS. 4-7 has five or six groups with 50, 10, 1 and 0.1 mcM (micromolar) of TPMs (1, 2, 3 and 5) in ethanol, and two control groups: Ethanol 5% (50 mcM) and positive control.
# The number of parasites was counted only after 48 hours. Again, an ethanol control at 0.1% was used.
# The IC50 was calculated by the method described by Hills et al. (18) and Huber and Koella (19). Briefly, Hills proposed finding two concentrations, X1 and X2, such that the parasite density, Y1, at concentration X1 (and all lower concentrations) was more than half of the density found in the control, Y0, and that the parasite density, Y2, at concentration X2 (and all higher concentrations) was less than half of Y0. The IC50 was then found by linear extrapolation between X1 and X2: log(IC50)=log(X1)|[(Y1−Y0/2)/(Y1−Y2)][ log(X2)−log(X1)].
# Compounds TPM 6 (MW=400.60), TPM 7 (MW=672.86), TPM 9 (MW=521.76) and TPM 10 (MW=662.95) were evaluated with the same methodology. They were tested using a maximum of 1% of ethanol in each treatment group. The ethanol control was also evaluated with the same concentration (1%).
# The treatment groups were TPM 6 at a dosage of 0.05; 0.01; 0.005 and 0.001 mcM.
# ang-2 mRNA = assay: Quantitative reverse transcription-PCR for ang-2 in bEnd.3 cells; type: cell-based, murine; details: 10 μM, 6.5 hours
# Method: bEnd.3 cells were seeded equally into six T-75 flasks and 24 hours later were treated with 0, 1, 5, 10, 15, and 20 μM concentrations of gentian violet (Sigma-Aldrich, no. G2039) in ethanol for 6.5 hours. RNA was extracted and purified using TRI reagent (Sigma-Aldrich, T9424) and measured using spectrophotometer (Perkin-Elmer UV/VIS, Wellesley, Mass.). RNA (1 μg) was used for DNase Amplification (Invitrogen, no. 18068-015, Carlsbad, Calif.) followed by first-strand synthesis for reverse transcription-PCR (Invitrogen SuperScript, no. 12371-019). 96-well Optical Reaction Plate (ABI PRISM, no. 128, Applied Biosystems, Foster City, Calif.) was used for the reverse transcription-PCR reaction. A measure of 2.5 μl of template, which had been diluted 1:10 in crosslinked water, was used in each well and the experiment was performed in triplicate. Ang pt2 (Applied Biosystems, Taqman Gene Expression Assay, Mm00545822_ml) and 18S (Applied Biosystems Taqman Gene Expression Assay, Hs99999901_sl) primers were used along with crosslinked molecular grade water (Cellgro, Mediatech, Inc., Herndon, Va.) and master mix (Applied Biosystems TaqMan Fast Universal PCR Master Mix (2^x)). The reaction was run on the 7900 Applied Biosystems Reader for Absolute Quantification for 96-well plates. C values were analyzed by ΔΔCt method, and the standard error of the mean was calculated (FIG. 3b). The same protocol was used for treatment with brilliant green (Sigma, no. B6756), except that the concentrations used were 0, 0.1, 0.25, 0.5, and 0.75 μM (FIG. 3a).
# T. brucei = assay: Parasitemia in mice injected with T. brucei; type: in vivo
# Method: In one study, the parasite was T. brucei. Mice were injected with parasites (5,000 parasites/mouse), and injected (s.c) with imipramine blue (1 mg/mice/day) starting from the day the mice were injected with parasites. The parasitemia level in blood was counted on each following day.
# The experiment was repeated with IV administration of imipramine blue (100 μg of imipramine blue). […] Accordingly, it is important to find a therapeutic window (where treatment of parasitemia can be effected, without unwanted toxic effects). This therapeutic window is in the range of between about 150 and 250 μg.
# [1] = system: P. falciparum Dd2 (Multidrug Resistant); assay: Malaria model, multidrug resistant P. falciparum; type: cell-based
# Method: (§1) The compounds were tested in a malaria model using both chloroquine sensitive and multidrug resistant P. falciparum. The malaria model was the same as published in JAC Advance Access published online on Jul. 30, 2008, Journal of Antimicrobial Chemotherapy, doi:10.1093/jac/dkn315, the contents of which are hereby incorporated by reference, and the data is summarized in the table below.
# (§2) Briefly, the assay involves exposing both chloroquine sensitive and multidrug resistant P. falciparum to the compounds. After one hour of exposure to the highest concentration of the compound, followed by removal of the compound, the growth of all stages of P. falciparum was observed. The reduction in the growth stages was then compared with untreated control parasites. […] The presence of strong inhibition (defined herein as 10% growth) of all parasite stages was evaluated when the parasites were exposed to various concentrations of various compounds.
# [2] = system: P. falciparum D6 (Chloroquine Sensitive); assay: Malaria model, chloroquine sensitive P. falciparum; type: cell-based
# Method: as §1, §2
# [3] = system: CD38 positive population of primary cells from myeloma patients; assay: Primary cells from myeloma patients, cell killing; type: cell-based, human; details: alone as a single agent or in combination with bortezomib
# Method: (§3) Imipramine blue was obtained from the department of dermatology, Emory University. MTT assays for myeloma cells (MM.1S, MM.1R, RPMI8226, and U266) were used to evaluate the cell viability. AnnexinV staining and cell cycle analysis was done by flow cytometry to assess the level of apoptosis and analyze cell cycle arrest. Western blotting was performed using antibodies to analyze the impact of imipramine blue on various targets. Bone marrow from myeloma patients were obtained with consent from the Winship Cancer Institute.
# [4] = ESR spectrum with superoxide dismutase; details: room temperature ESR, conditions as in Li et al.
# Method: Li used ESR to confirm the production of NADPH-dependent.O2—by isolated endosomes (Li et al., Molecular and Cellular Biology, January 2006, p. 140-154, 26(1):140-154 (2006)). ESR assays were conducted at room temperature using a Bruker model EMX ESR spectrometer (Bruker). Vesicular fractions from each sample were mixed with the spin trap, 50 mM 5,5-dimethyl-1-pyrroline N-oxide (DMPO), in a total volume of 500 μl of PBS, pH 7.4. This solution contained iminodiacetic acid-chelating resin (10 ml/liter; Sigma-Aldrich). The reaction was initiated by adding NADPH to 100 μM and was immediately placed into the ESR spectrometer. DMPO-hydroxyl radical adduct formation was assayed for 10 min. Instrument settings were as follows: receiver gain, 1×10^6; modulation frequency, 100 kHz; microwave power, 40.14 mW; modulation amplitude, 1.0 G; and sweep rate, 1 G/s.
# myeloma cells [5] = assay: AnnexinV staining and cell cycle analysis by flow cytometry; type: cell-based
# Method: as §3
# [6] = system: bloodstream form of T. brucei; assay: Bloodstream form of T. brucei, live cells, overnight treatment; type: cell-based; details: at 500 nm
# Method: These and other compounds were tested on live cells.
# The experiment was conducted with one million cells of the bloodstream form of T. brucei. After over night treatment with different compounds (at concentrations of 50 and 100 μmolar), cells were counted and plotted with controls.
# [7] = system: leukemia and lymphoma cell lines; assay: Cell growth inhibition in leukemia and lymphoma cell lines; type: cell-based
# [8] = system: myeloma cells (MM.1S, MM.1R, RPMI8226, and U266); assay: MTT cell viability assay, myeloma cells; type: cell-based
# Method: as §3
# HIF2a = HIF2a expression model (quantitative RT-PCR); type: cell-based; details: WM35 PKB cells, 5 micromolar, 24 hours
# Method: In this expression model, WM35 PKB cells are exposed to 5 micromolar of test compounds for 24 hours. At the end of this period, cells are harvested for RNA, which is then reverse transcribed into cDNA, and levels of HIF2a message are quantified using quantitative RT-PCR and corrected for a housekeeping RNA message.
# myeloma cells [9] = assay: Western blotting of myeloma cells; type: cell-based
# Method: as §3
# [10] = 48 hours, linear extrapolation method of Hills
# [11] = summary table of experiments 1-4
compound,measurement,setting,value
CCN(CC)c1ccc(C(=C2C=CC3C(C[C@H](N)C(=O)O)=CNC3=C2)c2ccc(N(CC)CC)cc2)cc1 (stereo partly drawn) [TPM 5],activity in first experiment,Leishmania amazonensis,did not
"c1ccc([I+]c2ccccc2)cc1 [DPI, diphenyliodonium]",decrease in ang-2 expression compared to control,ang-2 mRNA,80%
CCN(CC)c1ccc(C(=C2C=C3CCc4ccccc4N(CCCN(C)C)C3=CC2)c2ccc(N(CC)CC)cc2)cc1 [TPM 2],activity in first experiment,Leishmania amazonensis,have shown activity
same,growth inhibition,"Leishmania amazonensis; 1 mcM, 48 hours",72%
same,IC50,Leishmania amazonensis; [10],~600 nM
same,IC50,Leishmania amazonensis; [11],600 nM
same,number of parasite/ml of blood versus control,T. brucei; s.c. 1 mg/mice/day from day of infection,slightly less
same,survival of infected mice,"T. brucei; s.c. 1 mg/mice/day from day of infection, 5,000 parasites/mouse",died at day 4
CCN(CC)c1ccc(C(=C2C=CC(C)C=C2)c2ccc(N(CC)CC)cc2)cc1 (stereo not drawn) [TPM 6],IC50,[1]; Dd2; read-out: IC50 (nM) vs P. falciparum Dd2 (Multidrug Resistant),48.9 nM
same,IC50,[2]; D6; read-out: IC50 (nM) vs P. falciparum D6 (Chloroquine Sensitive),61.7 nM
same,active / inactive in the malaria assay,[2]; summary over D6 and Dd2 strains,active
same,relative activity among compounds tested,Leishmania amazonensis,most active compound
same,growth inhibition,"Leishmania amazonensis; 0.01 mcM, 48 hours",41%
same,growth inhibition,"Leishmania amazonensis; 0.05 mcM, 48 hours",59%
same,growth inhibition,"Leishmania amazonensis; 0.1 mcM, 48 hours",98%
same,growth inhibition,"Leishmania amazonensis; 0.5 mcM, 48 hours",98%
same,growth inhibition,"Leishmania amazonensis; 1 mcM, 48 hours",100%
same,growth inhibition,"Leishmania amazonensis; 5 mcM, 48 hours",100%
same,IC50,Leishmania amazonensis; [10],~20 nM
same,IC50,Leishmania amazonensis; [11],20 nM
"CCN(CC)CCCC(C)Nc1ccnc2cc(Cl)ccc12 (stereo not drawn) [Chloroquine, reference compound]",IC50,"[1]; Plasmodium falciparum, DD2, read-out: IC50 (nM) vs P. falciparum Dd2 (Multidrug Resistant)",140 nM
same,IC50,"[2]; Plasmodium falciparum, D6, read-out: IC50 (nM) vs P. falciparum D6 (Chloroquine Sensitive)",7.9 nM
CCN(CC)c1ccc(C(c2ccc(N(CC)CC)cc2)=c2ccc3c(c2)CCc2ccccc2[N+]=3CCCN(C)C)cc1 [TPM 2],IC50,"[1]; Plasmodium falciparum, DD2; read-out: IC50 (nM) vs P. falciparum Dd2 (Multidrug Resistant)",826 nM
same,cell killing of CD38 positive population,[3],very significant cell killing
same,radical formation with superoxide (ESR),[4],appear to form a radical by reacting with superoxide
same,cell cycle profile,myeloma cells [5]; MM.1S cells,induces both cell cycle arrests as well as apoptosis
same,apoptosis by annexin V staining,myeloma cells [5]; similar concentrations (6 uM to 10 μM),induced to undergo apoptosis
same,cell toxicity to trypanosome toxicity,[6],favorable
same,cell growth,[7],induced cell growth inhibition
same,IC50,"[2]; Plasmodium falciparum, D6; read-out: IC50 (nM) vs P. falciparum D6 (Chloroquine Sensitive)",~2500 nM
same,lethality to mice,T. brucei; 1 mg IV,killed the mice
same,decrease in parasitemia,"T. brucei; IV, 100 μg, mouse model",70%
same,growth advantage by cytokines IL-6 and IGF1,[8]; MM.1S cells,overcomes the growth advantage
same,combination with bortezomib or perifosine,[8]; myeloma cells,additive benefit in combination
same,growth inhibition,"[8]; treated up to 72 hrs, between 6 uM to 10 μM",more than 80%
same,inhibition of HIF2a expression,HIF2a,around 90%
same,"cleavage of procaspases (caspase 8, 9, 3 and PARP)","myeloma cells [9]; 0.5 μM to 10 μM, about 48 hrs",extensively cleaved
same,phos-AKT level,myeloma cells [9]; MM.1S,not significantly reduced
same,phos-p53 and GADD45 levels,myeloma cells [9]; MM.1S,upregulaed
